Tests used:
avascular tissue = experiment: Regeneration of avascular tissue upon direct administration; conditions: for regeneration on administration: non-HMG-CoA reductase inhibitor metabolites
BMP-2 = conditions: non-HMG-CoA reductase inhibitor metabolites
[1] = test system: BMP-2 mRNA expression in rat NP cells; experiment: BMP-2 mRNA expression in rat NP cells cultured in alginate beads (RT-qPCR); type: cell-based; conditions: for BMP-2 mRNA expression with a GGTase inhibitor, level compared with SV: single GGTase inhibitor
Description: Data are normalized with GAPDH and are expressed as ratio to vehicle (DMSO).
Findings from the investigation on SV stimulating endogenous BMP-2 expression in the treated NP cells, which in turn increases chondrogenic phenotype expression (aggrecan and type II collagen mRNA expression as well as sGAG content), were consistent with the above observations, validating that the small molecule is as efficacious in promoting chondrogenesis as to osteogenesis. […] SV has been prescribed widely for the treatment of hypercholesterolaemia and hypertriglyceridaemia. In humans, it undergoes rapid metabolism to form four major oxidative, NADPH-dependent metabolites, 3′-hydroxy SV (hSV), 6′-exomethylene SV (eSV), 3′,5′-dihydrodiol SV (dSV), and SVA (FIG. 5). […] This raised the question as to whether SVA is dominant in the entire scheme of BMP-2 upregulation. To test whether the levels of induced-BMP-2 by both SV and SVA, respectively, would be any different, the present investigators used the in vitro model system developed in the prior study to conduct the test. Rat NP cells harvested from tail discs were cultured initially in monolayer and then in alginate beads (Zhang H. et al. Spine, 2008; 33(16), the entire disclosure of which is incorporated herein by reference). Cells were treated with DMSO (vehicle), SV or SVA at 1 or 3 μM. Cells were then collected at pre-determined time points and with RNA extracted. Gene expression was analyzed by RT-qPCR. […] The BMP-2 level induced in the SVA group was 5-6 times higher than that in the SV one (FIG. 1A).
The classic mechanism understood for cholesterol lowering by statins is that statins act by competitively inhibiting HMG-CoA reductase, the first committed enzyme of the mevalonate (MVA) pathway. This competition reduces the rate by which HMG-CoA reductase is able to produce MVA, the next molecule in the cascade for the synthesis of prenylation enzyme substrates FPP and GGPP that eventually help produce cholesterol. As indicated previous studies by the inventors (Zhang H. N., Lin C. Y. Spine. 2008; 33(16), fully incorporated herein by reference), when SV was present, BMP-2 mRNA expression of NP cells always responded in a time and dose-dependent manner.

mevalonate conversion = experiment: Inhibition of mevalonate conversion; type: biochemical

## 3′-hydroxy simvastatin [hSV]
Avascular tissue
  regeneration on administration: promoted a degree of regeneration
BMP-2
  effect on BMP-2 upregulation: also affect BMP-2 upregulation

## CCC(C)(C)C(=O)O[C@H]1C[C@@H](C)C=C2C=C[C@H](C)[C@H](CC[C@@H](O)C[C@@H](O)CC(=O)O)[C@H]21 [SVA, simvastatin beta-hydroxy acid]
[1]; 1 μM, Day 1 to 3, rat NP cells
  mRNA expression of BMP-2 in cells treated with SVA compared to cells treated with SV: the same or doubled
[1]; 1 μM, Day 7, rat NP cells
  BMP-2 level induced in the SVA group relative to the SV group: 5-6 times
[1]; 3 μM, rat NP cells
  difference in BMP-2 level between SVA and SV: further augmented
Mevalonate conversion
  inhibition of mevalonate conversion compared with SV: more efficiently than SV
Avascular tissue; regeneration of avascular tissue upon direct administration
  anabolic effect relative to SV alone: 5-6 times

## C=C(C)[C@@H]1CC=C(CO)CC1 [POH, reference compound]
[1]
  BMP-2 mRNA expression with a GGTase inhibitor, level compared with SV: able to increase BMP-2 mRNA expression, but the level was much lower than that found with SV

## COC(=O)[C@H](CC(C)C)NC(=O)c1ccc(NC[C@@H](N)CS)cc1-c1ccccc1 [GGTI-286, reference compound]
[1]
  BMP-2 mRNA expression with a GGTase inhibitor, level compared with SV: able to increase BMP-2 mRNA expression, but the level was much lower than that found with SV

## CCC(C)(C)C(=O)OC1CC(C)C(O)C2=CC(O)C(C)C(CCC3CC(O)CC(=O)O3)C21 (centres unmarked) [dSV, 3′,5′-dihydrodiol simvastatin]
Avascular tissue
  regeneration on administration: promoted a degree of regeneration
BMP-2
  effect on BMP-2 upregulation: also affect BMP-2 upregulation
